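1) Cells in 96-well plates. 2) Compound, 48 h, 5 concentrations. 3) Linear interpolation between surrounding doses. 4) Unreached endpoint = highest concentration. GI50 is the concentration that inhibits growth by half.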 Active and inactive are the calls of the source. No stated cut-off is given here; in the data, active = GI50 up to about 1.1 µM and inactive = higher.
How the values were obtained:
Test in all cases: NCI-60 cell line screen, 48 h
[1] = system: CAKI-1
[2] = system: HOP-92
[3] = system: SF-539
[4] = system: 786-0
[5] = system: HL-60
[6] = system: SNB-19
[7] = system: SK-MEL-2
[8] = system: SNB-75
[9] = system: A549
[10] = system: M14
[11] = system: K562
[12] = system: SF-295
[13] = system: SN12C
[14] = system: IGROV-1
[15] = system: NCI-H226
[16] = system: SR

Measured: GI50

COC(=O)C(C(=O)C(=O)Nc1ccc([N+](=O)[O-])cc1[N+](=O)[O-])c1nc2ccc(Cl)cc2nc1O (centres undefined)
inactive: [1] > 100 µM | [2] > 100 µM | [3] > 100 µM | [4] > 100 µM | [5] > 100 µM | [6] > 100 µM | [7] > 100 µM | [8] 68.2 µM | [9] > 100 µM | [10] > 100 µM | [11] > 100 µM | [12] > 100 µM | [13] > 100 µM | [14] > 100 µM | [15] 79.1 µM

[O-][S+]1c2ccccc2N=C(c2cccs2)CC1c1ccccc1O (centres undefined)
inactive: [1] > 100 µM | [3] > 100 µM | [4] > 100 µM | [5] > 100 µM | [6] > 100 µM | [7] > 100 µM | [8] 32.4 µM | [9] > 100 µM | [10] > 100 µM | [11] > 100 µM | [12] 70.3 µM | [13] > 100 µM | [14] 16.5 µM | [15] > 100 µM

CCOC(=O)C12C(C(=O)OC)=C(C)N(NC(=O)Nc3ccccc3)C1(N)N(NC(=O)Nc1ccccc1)C(C)=C2C(=O)OC (centres undefined)
inactive: [1] 34.9 µM | [2] 24.9 µM | [3] 18.9 µM | [4] 39.5 µM | [5] 23.6 µM | [6] 29.4 µM | [7] 19.9 µM | [16] 22 µM | [8] 33.7 µM | [9] 44.6 µM | [10] 21.2 µM | [11] 29.9 µM | [12] 26.1 µM | [13] > 61.5 µM | [14] 41.2 µM | [15] > 100 µM

O=C(NCC(O)CNC(=O)C(F)(F)F)C(F)(F)F
inactive: [1] > 100 µM | [2] > 100 µM | [3] > 100 µM | [4] > 100 µM | [5] > 100 µM | [6] > 100 µM | [16] > 100 µM | [8] > 100 µM | [9] > 100 µM | [10] > 100 µM | [11] > 100 µM | [12] > 100 µM | [13] > 100 µM | [14] > 100 µM | [15] > 100 µM

Cc1ccc(-c2cc(=O)c3cc(C)c(C)c(C(=O)O)c3o2)cc1[N+](=O)[O-]
inactive: [1] > 100 µM | [3] > 100 µM | [4] > 100 µM | [6] > 100 µM | [7] > 100 µM | [8] > 100 µM | [9] > 100 µM | [10] > 100 µM | [11] > 100 µM | [12] > 100 µM | [13] > 100 µM | [14] > 100 µM | [15] > 100 µM

O=C(CCN1CCCC1)CC(c1ccccc1)c1c(O)c2ccccc2oc1=O (centres undefined)
inactive: [2] 20.1 µM | [4] > 100 µM | [5] > 100 µM | [6] > 100 µM | [7] > 100 µM | [16] > 100 µM | [8] > 100 µM | [9] > 100 µM | [10] > 100 µM | [11] > 100 µM | [12] > 100 µM | [13] > 100 µM | [14] > 100 µM | [15] > 100 µM

O=C(O)CCC(N/C=C1/N=C(c2ccccc2)OC1=O)C(=O)O (centres undefined)
inactive: [1] > 100 µM | [3] > 100 µM | [4] > 100 µM | [5] 10 µM | [6] > 100 µM | [7] > 100 µM | [16] > 100 µM | [8] > 100 µM | [9] > 100 µM | [10] > 100 µM | [11] > 100 µM | [12] > 100 µM | [13] > 100 µM | [14] > 100 µM | [15] > 100 µM

CC(=O)c1sc(-c2nc(C)c(C(=O)/C=C\c3ccc(/C=C\C(=O)c4sc(-c5nc(C)c(C(C)=O)s5)nc4C)cc3)s2)nc1C
inactive: [1] > 100 µM | [3] > 100 µM | [4] > 100 µM | [5] > 100 µM | [6] > 100 µM | [7] > 100 µM | [16] > 100 µM | [9] > 100 µM | [10] > 100 µM | [11] > 100 µM | [12] > 100 µM | [13] > 100 µM | [14] > 100 µM | [15] > 100 µM

Cn1c(N)nc(=O)c2c1N(C1OC(CO)C(O)C1O)CN2Cc1ccccc1 (centres undefined)
inactive: [1] > 100 µM | [2] > 100 µM | [3] > 100 µM | [4] > 100 µM | [5] > 100 µM | [6] > 100 µM | [7] > 100 µM | [16] > 100 µM | [8] > 100 µM | [9] > 100 µM | [10] > 100 µM | [11] > 100 µM | [12] > 100 µM | [13] > 100 µM | [14] > 100 µM | [15] > 100 µM

COC(=O)C1(C)CCc2c(OC)ccc(OC)c2C1=O (centres undefined)
inactive: [3] > 100 µM | [4] > 100 µM | [5] > 100 µM | [6] > 100 µM | [7] > 100 µM | [16] > 100 µM | [8] 29.8 µM | [9] > 100 µM | [10] > 100 µM | [11] > 100 µM | [12] > 100 µM | [13] > 100 µM | [14] > 100 µM | [15] > 100 µM

O=C1OC(c2ccccc2)=N/C1=C\c1cccc2ccccc12
inactive: [1] > 100 µM | [2] 52.4 µM | [3] > 100 µM | [4] > 100 µM | [5] > 100 µM | [6] > 100 µM | [7] > 100 µM | [16] > 100 µM | [8] > 100 µM | [9] > 100 µM | [10] > 100 µM | [11] > 100 µM | [12] > 100 µM | [13] > 100 µM | [14] > 100 µM | [15] > 100 µM

O=C1C[C@@H]2[C@@H](CCC23CC3)N1
inactive: [1] > 100 µM | [3] > 100 µM | [4] > 100 µM | [5] > 100 µM | [6] > 100 µM | [7] > 100 µM | [8] > 100 µM | [9] > 100 µM | [10] > 100 µM | [11] > 100 µM | [12] > 100 µM | [13] > 100 µM | [14] > 100 µM | [15] > 100 µM

CCCCCCCCCCC(=O)CC(=O)c1c(O)cccc1O
inactive: [1] 41 µM | [2] 27.1 µM | [3] 36.4 µM | [4] 36.1 µM | [5] 16.3 µM | [6] 61.8 µM | [16] 33.6 µM | [8] 40.3 µM | [9] 32.4 µM | [10] 40.2 µM | [11] 24.9 µM | [12] 36.6 µM | [13] 29.3 µM | [14] 46.8 µM | [15] 17.9 µM

CSC(=S)c1ccc(C(=S)SC)cc1
inactive: [1] > 100 µM | [2] > 100 µM | [3] > 100 µM | [4] > 100 µM | [5] > 100 µM | [6] > 100 µM | [16] > 100 µM | [8] > 100 µM | [9] > 100 µM | [10] > 100 µM | [11] > 100 µM | [12] > 100 µM | [13] > 100 µM | [14] > 100 µM | [15] > 100 µM

Cc1ccccc1SC(/C=C/NNC1=NN=C(c2ccccc2)C(c2ccccc2)N1)c1ccccc1 (centres undefined)
inactive: [1] 13.7 µM | [2] 9.57 µM | [3] 13.4 µM | [4] 11.9 µM | [5] > 10 µM | [6] 50 µM | [7] 16.3 µM | [8] 5.68 µM | [9] 14.3 µM | [10] 19.1 µM | [11] 30.2 µM | [12] 18.8 µM | [13] 61.2 µM | [14] 27.4 µM | [15] 18.3 µM

Cc1ccccc1/C=N/C12CC3CC(CC(C3)C1)C2
inactive: [1] > 100 µM | [2] > 100 µM | [3] > 100 µM | [4] > 100 µM | [5] > 100 µM | [6] > 100 µM | [7] > 100 µM | [8] > 100 µM | [9] > 100 µM | [10] > 100 µM | [11] > 100 µM | [12] 49.3 µM | [13] > 100 µM | [14] > 100 µM | [15] > 100 µM

COc1ccc(Cc2c(=O)[nH]nc3ccccc23)cc1
inactive: [1] > 100 µM | [2] > 100 µM | [3] > 100 µM | [4] > 100 µM | [6] > 100 µM | [7] > 100 µM | [8] 29 µM | [9] 43.6 µM | [10] > 100 µM | [11] > 100 µM | [12] > 100 µM | [13] > 100 µM | [14] > 100 µM | [15] 85.7 µM

CCCOC(=O)C1CCC(=O)N1C(=O)C(Cl)Cl (centres undefined)
inactive: [1] > 100 µM | [2] > 100 µM | [4] > 100 µM | [5] > 100 µM | [6] > 100 µM | [7] > 100 µM | [8] 59 µM | [9] > 100 µM | [10] > 100 µM | [11] > 100 µM | [12] > 100 µM | [13] > 100 µM | [14] > 100 µM | [15] > 100 µM

From ChEMBL document CHEMBL1201862, “PubChem BioAssay data set” (2004)
